According to PMC10175918 (Communications Biology, 2023):
Read-outs that look alike come from different tables or passages of the source.

Legend:
Assay in all cases: TGFα-shedding assay-based GPCR screening with chimeric Gα subunit proteins
Assay type in all cases: cell-based
[1] = molecular target: T1, 348 GPCRs (Homo sapiens, UniProt P51685); settings: 10µM, Favipiravir 100μM
T1 construct: expressed in transfected cells; host or cells: HEK293A

[2] = molecular target: T2, 348 GPCRs (Homo sapiens, UniProt Q92847); settings: 10µM, Favipiravir 100μM
T2 construct: expressed in transfected cells; host or cells: HEK293A
T2 sequence (Q92847 whole entry): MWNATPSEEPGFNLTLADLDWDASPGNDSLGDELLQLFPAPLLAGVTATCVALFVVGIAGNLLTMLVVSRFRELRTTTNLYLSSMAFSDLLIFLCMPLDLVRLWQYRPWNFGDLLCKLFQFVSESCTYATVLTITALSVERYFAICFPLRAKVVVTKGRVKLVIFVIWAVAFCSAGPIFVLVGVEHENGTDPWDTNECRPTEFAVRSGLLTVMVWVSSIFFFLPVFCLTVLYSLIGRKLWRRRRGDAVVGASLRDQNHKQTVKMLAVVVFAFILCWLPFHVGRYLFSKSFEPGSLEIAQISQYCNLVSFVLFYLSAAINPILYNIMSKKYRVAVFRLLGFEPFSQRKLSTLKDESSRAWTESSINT

[3] = molecular target: T3, 348 GPCRs (Homo sapiens, UniProt P41231)
T3 construct: expressed in transfected cells; host or cells: HEK293A
T3 sequence (P41231 whole entry): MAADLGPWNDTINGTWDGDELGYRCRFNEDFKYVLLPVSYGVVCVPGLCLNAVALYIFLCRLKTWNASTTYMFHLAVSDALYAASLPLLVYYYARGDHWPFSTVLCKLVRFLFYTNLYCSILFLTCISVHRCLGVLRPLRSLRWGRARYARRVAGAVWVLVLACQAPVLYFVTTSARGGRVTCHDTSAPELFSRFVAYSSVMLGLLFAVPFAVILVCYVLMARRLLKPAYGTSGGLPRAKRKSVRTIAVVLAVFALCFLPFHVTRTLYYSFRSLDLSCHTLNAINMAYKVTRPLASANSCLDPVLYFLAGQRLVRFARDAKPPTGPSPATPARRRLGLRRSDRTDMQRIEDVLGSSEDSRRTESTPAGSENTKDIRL

[4] = molecular target: T4, 348 GPCRs (Homo sapiens, UniProt Q86SP6); settings: 10µM, Favipiravir 100μM
T4 construct: expressed in transfected cells; host or cells: HEK293A
T4 sequence (Q86SP6 1-731): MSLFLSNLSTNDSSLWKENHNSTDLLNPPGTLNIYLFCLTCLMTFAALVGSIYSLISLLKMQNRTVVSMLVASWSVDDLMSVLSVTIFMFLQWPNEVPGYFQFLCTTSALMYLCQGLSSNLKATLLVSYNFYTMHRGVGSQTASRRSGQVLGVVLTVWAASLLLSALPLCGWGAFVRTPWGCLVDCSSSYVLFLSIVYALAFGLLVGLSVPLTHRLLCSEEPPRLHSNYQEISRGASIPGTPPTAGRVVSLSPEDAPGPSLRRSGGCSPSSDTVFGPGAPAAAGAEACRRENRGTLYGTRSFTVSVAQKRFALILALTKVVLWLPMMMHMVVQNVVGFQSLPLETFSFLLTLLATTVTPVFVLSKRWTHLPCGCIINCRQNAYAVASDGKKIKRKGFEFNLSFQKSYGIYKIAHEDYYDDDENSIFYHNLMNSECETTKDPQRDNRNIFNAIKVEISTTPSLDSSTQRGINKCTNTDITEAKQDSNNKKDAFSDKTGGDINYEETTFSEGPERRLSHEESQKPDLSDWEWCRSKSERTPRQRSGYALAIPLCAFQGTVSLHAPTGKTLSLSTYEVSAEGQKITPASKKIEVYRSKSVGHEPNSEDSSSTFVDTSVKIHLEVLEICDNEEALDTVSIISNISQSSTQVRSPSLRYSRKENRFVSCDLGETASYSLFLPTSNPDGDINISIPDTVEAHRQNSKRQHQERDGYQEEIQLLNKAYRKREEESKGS

[5] = molecular target: T5, 348 GPCRs (Homo sapiens, UniProt P08588)
T5 construct: expressed in transfected cells; host or cells: HEK293A
T5 sequence (P08588 whole entry): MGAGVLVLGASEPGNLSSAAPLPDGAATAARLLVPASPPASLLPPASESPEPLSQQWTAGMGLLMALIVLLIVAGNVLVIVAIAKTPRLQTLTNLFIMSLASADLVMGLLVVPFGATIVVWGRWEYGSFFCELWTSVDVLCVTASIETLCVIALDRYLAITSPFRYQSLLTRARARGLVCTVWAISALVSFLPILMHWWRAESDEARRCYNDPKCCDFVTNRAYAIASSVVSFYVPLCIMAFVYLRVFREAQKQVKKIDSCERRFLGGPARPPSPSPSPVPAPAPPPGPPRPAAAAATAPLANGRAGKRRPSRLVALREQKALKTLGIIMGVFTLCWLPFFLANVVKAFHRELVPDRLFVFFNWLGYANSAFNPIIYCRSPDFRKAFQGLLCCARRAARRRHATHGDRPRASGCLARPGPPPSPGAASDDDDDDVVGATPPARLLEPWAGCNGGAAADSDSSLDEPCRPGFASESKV

[6] = molecular target: T6, 348 GPCRs (Homo sapiens, UniProt P25106)
T6 construct: expressed in transfected cells; host or cells: HEK293A
T6 sequence (P25106 whole entry): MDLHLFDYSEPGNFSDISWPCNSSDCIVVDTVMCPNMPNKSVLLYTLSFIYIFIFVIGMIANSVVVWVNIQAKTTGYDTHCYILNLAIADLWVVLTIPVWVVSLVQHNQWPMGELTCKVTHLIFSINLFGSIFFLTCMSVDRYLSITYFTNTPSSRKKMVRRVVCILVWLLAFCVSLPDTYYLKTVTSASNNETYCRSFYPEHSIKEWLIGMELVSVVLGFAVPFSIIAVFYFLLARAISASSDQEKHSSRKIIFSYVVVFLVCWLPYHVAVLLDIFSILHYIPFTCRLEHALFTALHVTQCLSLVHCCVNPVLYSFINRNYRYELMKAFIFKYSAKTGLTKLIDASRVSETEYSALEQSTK

[7] = molecular target: T7, 348 GPCRs (Homo sapiens, UniProt O14843); settings: 10µM, Favipiravir 100μM
T7 construct: expressed in transfected cells; host or cells: HEK293A
T7 sequence (O14843 1-346): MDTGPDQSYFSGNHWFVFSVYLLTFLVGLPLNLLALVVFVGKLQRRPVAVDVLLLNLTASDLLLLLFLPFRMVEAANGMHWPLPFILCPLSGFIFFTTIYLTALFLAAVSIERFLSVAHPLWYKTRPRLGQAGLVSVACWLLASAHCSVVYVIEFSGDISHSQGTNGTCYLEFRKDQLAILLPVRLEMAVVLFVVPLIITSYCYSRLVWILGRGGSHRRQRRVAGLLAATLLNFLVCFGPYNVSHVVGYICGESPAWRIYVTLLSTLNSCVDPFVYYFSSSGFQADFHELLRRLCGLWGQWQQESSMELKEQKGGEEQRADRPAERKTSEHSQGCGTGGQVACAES

[8] = molecular target: 348 GPCRs (Homo sapiens, UniProt Q9UPC5); settings: 10µM, Favipiravir 100μM
Sequence of 348 GPCRs (Homo sapiens, UniProt Q9UPC5) (Q9UPC5 whole entry): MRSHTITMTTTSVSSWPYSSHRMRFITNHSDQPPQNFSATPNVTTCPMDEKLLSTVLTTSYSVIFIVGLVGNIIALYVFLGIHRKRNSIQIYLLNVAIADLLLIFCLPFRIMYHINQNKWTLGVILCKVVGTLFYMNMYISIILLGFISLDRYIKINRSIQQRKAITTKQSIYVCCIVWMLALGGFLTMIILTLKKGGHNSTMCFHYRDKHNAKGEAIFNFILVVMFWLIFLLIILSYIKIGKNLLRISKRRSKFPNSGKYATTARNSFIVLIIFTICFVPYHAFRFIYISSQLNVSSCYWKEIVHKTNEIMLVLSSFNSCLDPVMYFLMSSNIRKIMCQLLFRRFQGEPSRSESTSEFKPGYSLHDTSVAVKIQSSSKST

[9] = molecular target: T8, 348 GPCRs (Homo sapiens, UniProt O43613); settings: 10µM, Favipiravir 100μM
T8 construct: expressed in transfected cells; host or cells: HEK293A
T8 sequence (O43613 1-425): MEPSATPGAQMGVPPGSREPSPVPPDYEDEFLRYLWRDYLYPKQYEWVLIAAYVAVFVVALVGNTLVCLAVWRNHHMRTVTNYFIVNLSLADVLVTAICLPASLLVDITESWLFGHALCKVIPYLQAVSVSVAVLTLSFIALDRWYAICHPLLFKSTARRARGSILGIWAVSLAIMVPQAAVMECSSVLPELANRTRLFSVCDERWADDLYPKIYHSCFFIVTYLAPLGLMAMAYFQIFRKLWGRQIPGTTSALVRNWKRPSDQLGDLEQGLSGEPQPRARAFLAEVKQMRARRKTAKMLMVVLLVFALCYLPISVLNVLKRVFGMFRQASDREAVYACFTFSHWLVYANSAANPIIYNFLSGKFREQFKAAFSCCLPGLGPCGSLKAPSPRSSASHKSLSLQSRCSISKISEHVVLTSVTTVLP

[10] = molecular target: 348 GPCRs (Homo sapiens, UniProt P41145); settings: read-out: % GPCR activation compared to TPA, OPRK1 (opioid receptor, kappa 1 (KOR)); 10µM, Favipiravir 100μM
Sequence of 348 GPCRs (Homo sapiens, UniProt P41145) (P41145 whole entry): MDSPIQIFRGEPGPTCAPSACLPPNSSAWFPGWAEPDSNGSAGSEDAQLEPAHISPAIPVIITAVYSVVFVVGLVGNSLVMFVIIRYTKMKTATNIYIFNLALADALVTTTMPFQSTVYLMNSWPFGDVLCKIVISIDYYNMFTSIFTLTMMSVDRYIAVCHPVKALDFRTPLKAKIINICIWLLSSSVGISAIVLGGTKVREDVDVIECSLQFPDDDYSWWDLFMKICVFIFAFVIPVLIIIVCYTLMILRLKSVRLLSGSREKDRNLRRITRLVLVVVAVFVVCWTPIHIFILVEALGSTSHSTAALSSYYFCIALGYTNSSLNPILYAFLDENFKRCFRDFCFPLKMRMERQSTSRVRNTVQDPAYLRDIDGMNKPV

[11] = molecular target: T9, 348 GPCRs (Homo sapiens, UniProt Q8WXD0); settings: RXFP2 (relaxin/insulin-like family peptide receptor 2); 10µM, Favipiravir 100μM
T9 construct: expressed in transfected cells; host or cells: HEK293A
T9 sequence (Q8WXD0 whole entry): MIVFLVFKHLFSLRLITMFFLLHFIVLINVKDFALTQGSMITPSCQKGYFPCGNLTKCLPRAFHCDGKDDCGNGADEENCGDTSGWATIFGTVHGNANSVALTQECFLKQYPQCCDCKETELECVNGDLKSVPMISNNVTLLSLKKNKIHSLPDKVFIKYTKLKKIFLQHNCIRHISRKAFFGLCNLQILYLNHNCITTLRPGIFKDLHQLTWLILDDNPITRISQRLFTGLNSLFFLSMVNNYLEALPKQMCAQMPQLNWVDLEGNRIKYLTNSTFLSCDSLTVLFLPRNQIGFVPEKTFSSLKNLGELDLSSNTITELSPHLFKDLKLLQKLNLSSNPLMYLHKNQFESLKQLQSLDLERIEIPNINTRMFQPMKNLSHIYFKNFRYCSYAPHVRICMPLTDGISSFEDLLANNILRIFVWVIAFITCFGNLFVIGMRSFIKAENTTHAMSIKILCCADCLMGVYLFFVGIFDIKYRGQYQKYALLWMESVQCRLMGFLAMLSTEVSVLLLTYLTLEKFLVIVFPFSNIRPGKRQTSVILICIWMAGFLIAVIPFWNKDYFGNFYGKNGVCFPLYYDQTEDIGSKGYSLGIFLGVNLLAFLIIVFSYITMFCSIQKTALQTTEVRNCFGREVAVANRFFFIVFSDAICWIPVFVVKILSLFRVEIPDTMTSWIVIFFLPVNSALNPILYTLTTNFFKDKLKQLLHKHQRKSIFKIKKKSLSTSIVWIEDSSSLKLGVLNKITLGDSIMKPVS

[12] = CCR8 (C-C motif chemokine receptor 8), read-out: % GPCR activation compared to TPA
[13] = GHSR (growth hormone secretagogue receptor), read-out: % GPCR activation compared to TPA
[14] = GPCR P2Y2 (purinergic receptor P2Y, G-protein coupled, 2), read-out: % GPCR activation compared to TPA
[15] = GPR149 (G protein-coupled receptor 149), read-out: % GPCR activation compared to TPA
[16] = GPCR β1 (adrenoceptor beta 1), read-out: % GPCR activation compared to TPA
[17] = GPCR CXCR7 (chemokine (C-X-C motif) receptor 7), read-out: % GPCR activation compared to TPA
[18] = FFA3 (free fatty acid receptor 3), read-out: % GPCR activation compared to TPA
[19] = GPR34 (G Protein-Coupled Receptor 34), read-out: % GPCR activation compared to TPA
[20] = HCRTR1 (hypocretin (orexin) receptor 1), read-out: % GPCR activation compared to TPA
[21] = read-out: % GPCR activation compared to TPA, CCR8 (C-C motif chemokine receptor 8)
[22] = read-out: % GPCR activation compared to TPA, GHSR (growth hormone secretagogue receptor)
[23] = read-out: % GPCR activation compared to TPA, GPCR P2Y2 (purinergic receptor P2Y, G-protein coupled, 2)
[24] = read-out: % GPCR activation compared to TPA, GPR149 (G protein-coupled receptor 149)
[25] = read-out: % GPCR activation compared to TPA, GPCR β1 (adrenoceptor beta 1)
[26] = read-out: % GPCR activation compared to TPA, GPCR CXCR7 (chemokine (C-X-C motif) receptor 7)
[27] = read-out: % GPCR activation compared to TPA, FFA3 (free fatty acid receptor 3)
[28] = read-out: % GPCR activation compared to TPA, GPR34 (G Protein-Coupled Receptor 34)
[29] = read-out: % GPCR activation compared to TPA, HCRTR1 (hypocretin (orexin) receptor 1)

T1 sequence (P51685 whole entry): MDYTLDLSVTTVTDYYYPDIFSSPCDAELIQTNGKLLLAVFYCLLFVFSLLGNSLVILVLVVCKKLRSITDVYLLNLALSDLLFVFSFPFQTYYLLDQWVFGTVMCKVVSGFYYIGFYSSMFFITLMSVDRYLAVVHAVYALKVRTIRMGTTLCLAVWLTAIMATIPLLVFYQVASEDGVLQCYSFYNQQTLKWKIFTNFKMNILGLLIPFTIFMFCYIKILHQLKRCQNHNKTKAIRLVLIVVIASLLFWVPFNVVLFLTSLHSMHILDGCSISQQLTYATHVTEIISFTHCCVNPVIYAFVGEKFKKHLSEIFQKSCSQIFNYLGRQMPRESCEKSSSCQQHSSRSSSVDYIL

Compound	activation at 10 µM [1, 12] [%]	activation at 10 µM [2, 13] [%]	activation at 10 µM [3, 14] [%]	activation at 100 µM [4, 15] [%]	activation at 10 µM [5, 16] [%]	activation at 10 µM [6, 17] [%]	activation at 10 µM [7, 18] [%]	activation at 10 µM [8, 19] [%]	activation at 100 µM [9, 20] [%]	activation at 100 µM [10] [%]	% GPCR activation compared to TPA [11] [%]	activation at 10 µM [1, 21] [%]	activation at 10 µM [2, 22] [%]	activation at 10 µM [3, 23] [%]	activation at 100 µM [4, 24] [%]	activation at 10 µM [5, 25] [%]	activation at 10 µM [6, 26] [%]	activation at 10 µM [7, 27] [%]	activation at 10 µM [8, 28] [%]	activation at 100 µM [9, 29] [%]	other results
N#C[C@@]1(c2ccc3c(N)ncnn23)O[C@H](CO)[C@@H](O)[C@H]1O [GS441524]	-5.03	-4.16	-17.2	-0.814	-0.381	1.43	-0.449	-1.27	16.9	-1.93	-1.305										
CC(C)OC(=O)[C@H](C)N[P@](=O)(OC[C@H]1O[C@@H](n2ccc(=O)[nH]c2=O)[C@](C)(F)[C@@H]1O)Oc1ccccc1 [sofosbuvir]										-1.11	-1.511	-2.89	-0.354	-41.7	-7.06	1.27	-0.832	0.217	-0.895	-0.162	
CCC(CC)COC(=O)[C@H](C)N[P@](=O)(OC[C@H]1O[C@@](C#N)(c2ccc3c(N)ncnn23)[C@H](O)[C@@H]1O)Oc1ccccc1 [remdesivir]										6.17	0.3691	0.425	12.2	-6.22	-0.636	1.07	0.898	4.74	-1.23	16.7	
CC(C)C(=O)OC[C@H]1O[C@@H](n2ccc(NO)nc2=O)[C@H](O)[C@@H]1O [molnupiravir]	-2.68	0.166	-58.1	-41.7	0.738	-1.56	-0.0973	-1.95	1.7	-1.39	-1.679										
NC(=O)c1nc(F)cnc1O [favipiravir, 6-fluoro-3-hydroxy-2-pyrazinecarboxamide]	-0.669	-3.33		0.0439			-0.552	-0.575	12.9	-1.65	-0.6733										activation at 100 µM ([3]; GPCR P2Y2 (purinergic receptor P2Y, G-protein coupled, 2), 100μM, read-out: % GPCR activation compared to TPA): -23%; activation at 100 µM ([5]; GPCR β1 (adrenoceptor beta 1), 100μM, read-out: % GPCR activation compared to TPA): -1.4%; activation at 100 µM ([6]; GPCR CXCR7 (chemokine (C-X-C motif) receptor 7), 100μM, read-out: % GPCR activation compared to TPA): -1.9%
